Columns and labels:
[1] = target: Dual specificity mitogen-activated protein kinase kinase 1 (Homo sapiens, UniProt Q02750); experiment: MEK 1/2 inhibition
[2] = target: Dual specificity mitogen-activated protein kinase kinase 2 (Homo sapiens, UniProt P36507); experiment: MEK 1/2 inhibition
Dual specificity mitogen-activated protein kinase kinase 2, sequence (P36507 whole entry): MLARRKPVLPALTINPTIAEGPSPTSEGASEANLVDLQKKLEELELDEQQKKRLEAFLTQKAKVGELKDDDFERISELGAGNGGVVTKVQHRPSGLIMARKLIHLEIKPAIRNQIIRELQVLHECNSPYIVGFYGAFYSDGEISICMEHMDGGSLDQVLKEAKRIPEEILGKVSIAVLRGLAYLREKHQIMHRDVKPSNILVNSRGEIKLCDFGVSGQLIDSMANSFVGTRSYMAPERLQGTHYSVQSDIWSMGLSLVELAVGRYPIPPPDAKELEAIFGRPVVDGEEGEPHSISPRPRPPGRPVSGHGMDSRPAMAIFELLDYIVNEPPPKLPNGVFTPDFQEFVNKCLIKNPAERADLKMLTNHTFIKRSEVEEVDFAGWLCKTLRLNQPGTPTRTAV

Dual specificity mitogen-activated protein kinase kinase 1, sequence (Q02750 whole entry): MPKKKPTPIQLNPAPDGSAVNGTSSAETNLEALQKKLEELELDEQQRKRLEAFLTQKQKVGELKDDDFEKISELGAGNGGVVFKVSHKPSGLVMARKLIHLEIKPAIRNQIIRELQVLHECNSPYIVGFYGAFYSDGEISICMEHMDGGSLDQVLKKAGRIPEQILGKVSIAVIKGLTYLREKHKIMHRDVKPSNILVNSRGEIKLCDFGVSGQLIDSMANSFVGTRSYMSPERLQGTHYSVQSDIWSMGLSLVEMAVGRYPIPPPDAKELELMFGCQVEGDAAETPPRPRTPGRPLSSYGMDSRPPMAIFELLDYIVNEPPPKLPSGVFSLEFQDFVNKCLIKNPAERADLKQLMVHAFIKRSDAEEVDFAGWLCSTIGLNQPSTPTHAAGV

Row | IC50 [1] [nM] | Compound | IC50 [2] [nM]
1 | 1.4 | O=C(NOC[C@@H](O)CO)c1cc(Br)c(F)c(F)c1Nc1ccc(I)cc1F [US11147816, PD318088] | 
2 |  | COc1cc(F)c(F)c(Nc2ccc(I)cc2F)c1NS(=O)(=O)C1(C[C@H](O)CO)CC1 [US11147816, Refametinib (RDEA119, Bay] | 47

Source: BindingDB's records for patent US11147816 (Genuv, 2021)
